Broadly, the IC50 is the concentration that inhibits the measured activity by half.

We go through 26 compounds from patent publication US12415794B2 (Edgewise Therapeutics, Inc., priority 2018, dated 2025).

SMILES strings stand for the structures.

Test [1] deals with skeletal myofibrils (myosin ATPase). In words: Skeletal Myofibril ATPase Assay. It counts as biochemical. As to the method: FIG. 7 depicts the buffer preparation procedures of Buffer A and Buffer B for the skeletal myofibril ATPase assay described in Example 12. Buffers were stored on ice until use.
Example 12: Skeletal Myofibril ATPase Assay
(§1) Overview: Myosin ATPase activity is assessed by using a coupled reaction system, in which ADP generated by the myosin ATPase function is coupled to the disappearance of NADH through the pyruvate kinase/lactate dehydrogenase (PK-LDH) system. ATPase activity produces ADP, which is used as a substrate for PK to produce pyruvate and regenerate ATP. The pyruvate is then used as a substrate by LDH to oxidize NADH to NAD+. The rate of the reaction is monitored through the time-dependent disappearance of NADH using absorbance at 340 nm. Inhibition of ATPase activity by the assayed compounds is indicated by a reduced rate of NADH loss, relative to vehicle-treated controls, over the experimental time window. To assess the selectivity of the assayed compounds for skeletal myofibrils, the compounds are counter-screened in cardiac myofibrils.
Materials: The following stock solutions and reagents were used in the Skeletal Myofibril ATPase Assay:
Stock Solutions of pCa buffer. Combine PIPES, CaCl2, and EGTA solutions with 70 mL of water. Adjust pH to 7.0 and bring final volume to 100 mL.
Skeletal Myofibril ATPase Assay Procedure: BSA, ATP, NADH, PEP, and DTT solutions were thawed at room temperature, then transferred to ice. Pellet-frozen myofibrils were transferred with approximately twice the required volume into a sufficiently large tube and capped. Myofibrils were thawed by rolling in a water bath for approximately 15 min at room temperature and cooled on ice. Buffers A and B were prepared by adjusting volumes as necessary for required number of wells and stored on ice. 0.5 μL of the compounds to be assayed were added into wells. 25 μL of Buffer A was dispensed into the wells, followed by 25 μL of Buffer B. The wells were measured for absorbance at 340 nm, using a kinetic protocol in which the wells are read every 1.5-2 min for 45 min. The slope of the data was approximated by subtracting the minimum absorbance value from the maximum value for each well. This was accomplished either in the SoftMax Pro software or in a spreadsheet program such as Excel. Using GraphPad Prism 8.0, the data was normalized by assigning a value of 100% to the 1% DMSO vehicle wells. Typically, a normalized 0% value was simply assigned to a (Max−Min) value of 0. The normalized data was fit to a Four Parameter Logistic sigmoidal equation, constraining the bottom to be 0 or greater. Compounds of Table 1, 2, and 3 were tested and results of the assay appear in Tables 4a-4c. A=IC50 is less than or equal to 10 μM; B=IC50 is greater than 10 μM and less than 100 μM; C=IC50 is greater than 100 μM.

The target of test [2] is T1, cardiac myofibrils (myosin ATPase).
T1 construct: frozen myofibril pellets obtained from cardiac tissue; from tissue
T1 sequence (P12883 whole entry): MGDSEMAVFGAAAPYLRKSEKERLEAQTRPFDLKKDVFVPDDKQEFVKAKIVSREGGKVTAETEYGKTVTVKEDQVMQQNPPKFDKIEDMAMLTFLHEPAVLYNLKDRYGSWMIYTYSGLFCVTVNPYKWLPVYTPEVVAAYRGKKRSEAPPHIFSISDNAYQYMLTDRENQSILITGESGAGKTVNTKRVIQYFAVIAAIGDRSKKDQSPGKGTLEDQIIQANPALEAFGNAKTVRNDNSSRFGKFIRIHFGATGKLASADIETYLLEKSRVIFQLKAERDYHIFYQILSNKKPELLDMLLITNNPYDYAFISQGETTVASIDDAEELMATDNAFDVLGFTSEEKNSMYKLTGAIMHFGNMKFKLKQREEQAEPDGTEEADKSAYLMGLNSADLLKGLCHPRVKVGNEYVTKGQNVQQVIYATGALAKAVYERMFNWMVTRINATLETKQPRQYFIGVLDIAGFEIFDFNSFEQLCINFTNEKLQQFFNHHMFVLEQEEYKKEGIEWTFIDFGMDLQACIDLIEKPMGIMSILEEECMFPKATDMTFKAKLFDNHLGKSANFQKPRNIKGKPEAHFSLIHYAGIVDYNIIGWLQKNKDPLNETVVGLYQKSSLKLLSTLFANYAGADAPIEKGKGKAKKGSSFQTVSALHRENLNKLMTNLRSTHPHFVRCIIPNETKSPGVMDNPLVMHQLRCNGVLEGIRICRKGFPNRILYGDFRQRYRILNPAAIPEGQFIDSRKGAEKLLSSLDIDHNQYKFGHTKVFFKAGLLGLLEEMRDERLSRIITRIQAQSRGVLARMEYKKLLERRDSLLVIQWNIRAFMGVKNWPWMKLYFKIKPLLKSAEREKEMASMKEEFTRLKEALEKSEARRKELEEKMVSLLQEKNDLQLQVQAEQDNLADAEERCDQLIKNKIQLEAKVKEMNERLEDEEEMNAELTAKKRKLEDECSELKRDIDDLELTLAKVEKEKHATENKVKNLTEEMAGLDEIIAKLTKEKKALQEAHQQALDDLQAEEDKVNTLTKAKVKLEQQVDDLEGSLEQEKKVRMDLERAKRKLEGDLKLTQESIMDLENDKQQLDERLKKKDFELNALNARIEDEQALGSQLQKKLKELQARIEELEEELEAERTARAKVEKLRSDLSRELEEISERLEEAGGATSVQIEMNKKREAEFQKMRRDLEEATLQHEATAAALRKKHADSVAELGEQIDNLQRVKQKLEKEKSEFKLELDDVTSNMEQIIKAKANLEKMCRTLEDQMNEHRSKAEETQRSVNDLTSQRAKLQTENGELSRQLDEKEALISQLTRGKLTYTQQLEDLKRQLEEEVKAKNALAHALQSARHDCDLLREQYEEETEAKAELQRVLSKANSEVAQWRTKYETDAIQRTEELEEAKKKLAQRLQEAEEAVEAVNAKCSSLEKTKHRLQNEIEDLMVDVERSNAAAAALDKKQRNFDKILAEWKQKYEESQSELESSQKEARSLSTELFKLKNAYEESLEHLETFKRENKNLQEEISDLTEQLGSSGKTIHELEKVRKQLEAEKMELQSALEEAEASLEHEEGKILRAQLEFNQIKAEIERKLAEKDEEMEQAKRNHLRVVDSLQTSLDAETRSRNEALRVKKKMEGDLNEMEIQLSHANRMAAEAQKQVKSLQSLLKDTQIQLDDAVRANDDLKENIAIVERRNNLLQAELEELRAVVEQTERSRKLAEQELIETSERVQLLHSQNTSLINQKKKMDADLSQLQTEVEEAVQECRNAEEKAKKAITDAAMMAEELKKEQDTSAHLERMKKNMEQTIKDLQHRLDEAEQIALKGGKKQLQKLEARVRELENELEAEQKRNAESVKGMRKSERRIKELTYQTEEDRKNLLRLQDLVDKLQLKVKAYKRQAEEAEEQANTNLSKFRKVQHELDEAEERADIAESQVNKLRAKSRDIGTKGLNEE
T1 sequence (P08590 whole entry partner): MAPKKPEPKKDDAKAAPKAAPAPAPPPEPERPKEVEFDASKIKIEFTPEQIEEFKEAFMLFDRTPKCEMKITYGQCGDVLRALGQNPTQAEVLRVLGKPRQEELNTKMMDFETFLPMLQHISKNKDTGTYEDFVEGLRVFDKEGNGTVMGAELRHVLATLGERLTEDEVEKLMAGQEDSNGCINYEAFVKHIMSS
T1 sequence (P10916 whole entry partner): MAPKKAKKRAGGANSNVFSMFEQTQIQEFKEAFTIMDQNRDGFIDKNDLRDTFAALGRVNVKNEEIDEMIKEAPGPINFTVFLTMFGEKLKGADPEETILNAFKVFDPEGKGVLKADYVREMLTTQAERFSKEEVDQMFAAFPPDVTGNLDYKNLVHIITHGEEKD
Description: Cardiac Myofibril ATPase Assay (counter screen). To be noted: myofibrils 1.0 mg/mL, KCl omitted. It counts as biochemical. As to the method: as §1
Example 13: Cardiac Myofibril ATPase Assay
Following example 11, the counter screen was done using frozen myofibril pellets obtained from cardiac tissue. The assay was done in the same manner as above, with the following notable exceptions: the final well concentration of myofibrils was 1.0 mg/mL and KCl was omitted from the recipe.
Compounds of Table 1 to 3 were tested, and results of the assays appear in Tables 5a-5c herein. A=IC50 is less than or equal to 10 μM; B=IC50 is greater than 10 μM and less than 100 μM; C=IC50 is greater than 100 μM; and […].
A general note: Counterscreens check selectivity or assay interference.

In the case of `CCNC(=O)Cn1nc(-c2ccc(OC(F)(F)F)nc2)ccc1=O` [Compound I-14, N-ethyl-2-(6-oxo-3-(6-(trifluoromethoxy)pyridin-3-yl)pyridazin-1(6H)-yl)acetamide], the IC50 in test [1] (Table 4A) is 10 to 100 µM; in test [2] (Table 5A), more than 100 µM. Taken in the same sequence, the figures for `CC(C)(C#N)NC(=O)Cn1nc(-c2ccc(OC(F)F)nc2)ccc1=O` [Compound I-35, N-(2-cyanopropan-2-yl)-2-(3-(6-(difluoromethoxy)pyridin-3-yl)-6-oxopyridazin-1(6H)-yl)acetamide] were 10 to 100 µM and more than 100 µM. As for `COc1ccc(-c2ccc(=O)n(CC(=O)NCc3cnccn3)n2)cc1` [IIIa-28, 2-(3-(4-methoxyphenyl)-6-oxopyridazin-1(6H)-yl)-N-(pyrazin-2-ylmethyl)acetamide], the IC50 in test [1] (Table 4C) and in test [2] (Table 5C) was more than 100 µM in each case.

For `O=C(Cn1nc(-c2ccc(OC(F)F)cc2)ccc1=O)NCc1ccccc1Cl` [II-3, N-(2-chlorobenzyl)-2-(3-(4-(difluoromethoxy)phenyl)-6-oxopyridazin-1(6H)-yl)acetamide], the IC50 in test [1] (Table 4B) was less than 10 µM; in test [2] (Table 5B), more than 100 µM. In the case of `COc1ccc(-c2ccc(=O)n(CC(=O)Nc3cccc4c3ccn4C)n2)cc1` [IIIb-4, 2-(3-(4-methoxyphenyl)-6-oxopyridazin-1(6H)-yl)-N-(1-methyl-1H-indol-4-yl)acetamide], the IC50 in test [1] (Table 4C) was less than 10 µM; in test [2] (Table 5C) it was 10 to 100 µM.

As to `COc1ccc(-c2ccc(=O)n(CC(=O)NCc3cccc(F)c3)n2)c(F)c1` [IIIb-55, 2-(3-(2-fluoro-4-methoxyphenyl)-6-oxopyridazin-1(6H)-yl)-N-(3-fluorobenzyl)acetamide], the IC50 in test [1] (Table 4C) and in test [2] (Table 5C) was more than 100 µM in each case.

Turning to `O=C(Cn1nc(-c2ccc(OC(F)F)nc2)ccc1=O)NC1CCC1` [Compound I-4, N-cyclobutyl-2-(3-(6-(difluoromethoxy)pyridin-3-yl)-6-oxopyridazin-1(6H)-yl)acetamide], the IC50 in test [1] (Table 4A) was less than 10 µM; in test [2] (Table 5A), more than 100 µM. For `CCNC(=O)Cn1nc(-c2ccc(SC)nc2)ccc1=O` [Compound I-63, N-ethyl-2-(3-(6-(methylthio)pyridin-3-yl)-6-oxopyridazin-1(6H)-yl)acetamide] the same measures were less than 10 µM and more than 100 µM. With `O=C(Cn1nc(-c2ccccc2)ccc1=O)NCc1ccccc1Cl` [IIIc-47, N-(2-chlorobenzyl)-2-(6-oxo-3-phenylpyridazin-1(6H)-yl)acetamide], the IC50 in test [1] (Table 4C) is 10 to 100 µM; in test [2] (Table 5C), more than 100 µM. In the case of `CCNC(=O)Cn1nc(-c2ccc(OCC3(F)COC3)nc2)ccc1=O` [Compound I-23, N-ethyl-2-(3-(6-((3-fluorooxetan-3-yl)methoxy)pyridin-3-yl)-6-oxopyridazin-1(6H)-yl)acetamide], the IC50 in test [1] (Table 4A) was 10 to 100 µM; in test [2] (Table 5A), more than 100 µM. `CCNC(=O)Cn1nc(-c2ccc(NC)nc2)ccc1=O` [Compound I-47, N-ethyl-2-(3-(6-(methylamino)pyridin-3-yl)-6-oxopyridazin-1(6H)-yl)acetamide] yielded an IC50 in test [1] (Table 4A) of less than 10 µM. As to `CCC(C)(C)NC(=O)Cn1nc(-c2ccc(OC(F)F)nc2)ccc1=O` [Compound I-20, 2-(3-(6-(difluoromethoxy)pyridin-3-yl)-6-oxopyridazin-1(6H)-yl)-N-(tert-pentyl)acetamide], the IC50 in test [1] (Table 4A) is 10 to 100 µM; in test [2] (Table 5A), more than 100 µM.

In the case of `O=C(Cn1nc(-c2ccc(OC(F)F)nc2)ccc1=O)NCc1ccc(Cl)cc1` [Compound I-70, N-(4-chlorobenzyl)-2-(3-(6-(difluoromethoxy)pyridin-3-yl)-6-oxopyridazin-1(6H)-yl)acetamide], the IC50 was less than 10 µM in test [1] (Table 4A) and more than 100 µM in test [2] (Table 5A). Regarding `COc1ccc(-c2ccc(=O)n(CC(=O)NCc3cccc(F)c3)n2)cc1` [IIIb-32, N-(3-fluorobenzyl)-2-(3-(4-methoxyphenyl)-6-oxopyridazin-1(6H)-yl)acetamide], the IC50 in test [1] (Table 4C) is 10 to 100 µM; in test [2] (Table 5C) it was more than 100 µM. For the compound `CCCCNC(=O)Cn1nc(-c2ccc(OC(F)F)cc2)ccc1=O` [II-17, N-butyl-2-(3-(4-(difluoromethoxy)phenyl)-6-oxopyridazin-1(6H)-yl)acetamide], the IC50 in test [1] (Table 4B) is 10 to 100 µM; in test [2] (Table 5B), more than 100 µM.

For the compound `CC(C)Oc1ccc(-c2ccc(=O)n(CC(=O)NCc3ccccc3Cl)n2)cc1` [IIIa-2, N-(2-chlorobenzyl)-2-(3-(4-isopropoxyphenyl)-6-oxopyridazin-1(6H)-yl)acetamide], the IC50 is less than 10 µM in test [1] (Table 4C) and more than 100 µM in test [2] (Table 5C). With `CC(C)OCCCNC(=O)Cn1nc(-c2ccc(Cl)cc2)ccc1=O` [IIIc-33, 2-(3-(4-chlorophenyl)-6-oxopyridazin-1(6H)-yl)-N-(3-isopropoxypropyl)acetamide], the IC50 in test [1] (Table 4C) is 10 to 100 µM; in test [2] (Table 5C) it was more than 100 µM. Taken in the same sequence, the figures for `COc1ccc(-c2ccc(=O)n(CC(=O)NC3CC3)n2)c(F)c1` [IIIb-58, N-cyclopropyl-2-(3-(2-fluoro-4-methoxyphenyl)-6-oxopyridazin-1(6H)-yl)acetamide] were more than 100 µM and more than 100 µM. `CC(C)NC(=O)Cn1nc(-c2ccccc2)ccc1=O` [IIIc-63, N-isopropyl-2-(6-oxo-3-phenylpyridazin-1(6H)-yl)acetamide]: the IC50 in test [1] (Table 4C) and in test [2] (Table 5C) was more than 100 µM throughout.

In test [1] (Table 4A), `O=C(Cn1nc(-c2ccc(NC34CC(C3)C4)nc2)ccc1=O)N1CCC1` [Compound I-39, 2-(2-(azetidin-1-yl)-2-oxoethyl)-6-(6-(bicyclo[1.1.1]pentan-1-ylamino)pyridin-3-yl)pyridazin-3(2H)-one] returned an IC50 of 10 to 100 µM.

The compound `CCNC(=O)Cn1nc(-c2cnc(NC34CC(O)(C3)C4)nc2)ccc1=O` [Compound I-42, N-ethyl-2-(3-(2-((3-hydroxybicyclo[1.1.1]pentan-1-yl)amino)pyrimidin-5-yl)-6-oxopyridazin-1(6H)-yl)acetamide] gave an IC50 in test [1] (Table 4A) of 10 to 100 µM. For `O=C(Cn1nc(-c2ccc(NC34CC(C3)C4)nc2)ccc1=O)NC12CC(C1)C2` [Compound I-46, N-(bicyclo[1.1.1]pentan-1-yl)-2-(3-(6-(bicyclo[1.1.1]pentan-1-ylamino)pyridin-3-yl)-6-oxopyridazin-1(6H)-yl)acetamide], the IC50 in test [1] (Table 4A) was less than 10 µM. For the compound `CCNC(=O)Cn1nc(-c2ccc(N3CC(COC(F)(F)F)C3)nc2)ccc1=O` [Compound I-40, N-ethyl-2-(6-oxo-3-(6-(3-((trifluoromethoxy)methyl)azetidin-1-yl)pyridin-3-yl)pyridazin-1(6H)-yl)acetamide], the IC50 in test [1] (Table 4A) was in the range of 10 to 100 µM. The same measure, in the same setting: under `CCNC(=O)Cn1nc(-c2cnc(OCCOC(F)(F)F)nc2)ccc1=O` [Compound I-49, N-ethyl-2-(6-oxo-3-(2-(2-(trifluoromethoxy)ethoxy)pyrimidin-5-yl)pyridazin-1(6H)-yl)acetamide] stands 10 to 100 µM.

In test [1] (Table 4A), `CCNC(=O)Cn1nc(-c2ccc(NC34CCC(CC3)CC4)nc2)ccc1=O` [Compound I-41, 2-(3-(6-(bicyclo[2.2.2]octan-1-ylamino)pyridin-3-yl)-6-oxopyridazin-1(6H)-yl)-N-ethylacetamide] came in with an IC50 of 10 to 100 µM. Still for that read-out and setting: as for `CCNC(=O)Cn1nc(-c2ccc(N3CCCC3C(F)(F)F)nc2)ccc1=O` (centres unmarked) [Compound I-48, N-ethyl-2-(6-oxo-3-(6-(2-(trifluoromethyl)pyrrolidin-1-yl)pyridin-3-yl)pyridazin-1(6H)-yl)acetamide], the figure is less than 10 µM.
